Columns and labels:
BRD4 = BRD4 (Homo sapiens (Human), UniProt O60885); experiment: TR-FRET in-vitro binding assay for BRD4; conditions: 45 nM His-Brd4(44-477), acetyl-histone H4 (AcK 5, 8, 12, 16) peptide
In short: (§1)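 TR-FRET binding read after 35 min incubation at 30° C. Compounds dispensed from 90% DMSO solutions and tested at 8 concentrations in a 13.55 μL total reaction volume.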

BRD2 = BRD2 (Homo sapiens (Human), UniProt P25440); experiment: TR-FRET in-vitro binding assay for BRD2; conditions: 45 nM His-Brd2(60-472), acetyl-histone H4 (AcK 5, 8, 12, 16) peptide
In short: as §1

BRD3 = BRD3 (Homo sapiens (Human), UniProt Q15059); experiment: TR-FRET in-vitro binding assay for BRD3; conditions: 45 nM His-Brd3(20-477), acetyl-histone H4 (AcK 5, 8, 12, 16) peptide
In short: as §1

MV-4-11 = experiment: Cell growth inhibition assay (CellTiter-Glo), MV-4-11; format: cell-based, human; conditions: MV-4-11 cells, 4 days; for GI50: Homo sapiens, MV4-11, 96 h, half-maximal growth inhibition; for MV-4-11 TGI: total growth inhibition
In short: (§2)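 4-day CTG ATP readout, 37 °C/5% CO2; top conc 10 μM, 3-fold dilutions; 0.1% DMSO vehicle. Luminescence background-subtracted, normalised to day 0 plate; vehicle = 100%, medium = −100%. IC50/TGI by 4-parameter fit.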

THP-1 = experiment: Cell growth inhibition assay (CellTiter-Glo), THP-1; format: cell-based, human; conditions: THP-1 cells, 4 days; for GI50: Homo sapiens, 96 h, half-maximal growth inhibition; for THP-1 TGI: total growth inhibition
In short: as §2

K-562 = experiment: Cell growth inhibition assay (CellTiter-Glo), K-562; format: cell-based, human; conditions: K-562 cells, 4 days; for GI50: Homo sapiens, K562, 96 h, half-maximal growth inhibition; for K-562 TGI: total growth inhibition
In short: as §2

BRD4-NUT-fusion = BRD4-NUT-fusion (Homo sapiens, UniProt O60885); experiment: Nut-foci formation assay in HCC2494 NUT midline carcinoma cells; format: cell-based; conditions: 24 hours, nuclear BRD4-NUT foci by immunofluorescence microscopy, read-out: HCS Brd4-NUT IC50
Procedure: Nut-Foci Formation Assay […] Compound-mediated inhibition of BRD4 activity can be monitored by quantification of the number and intensity of nuclear BRD4-NUT foci using automated immunofluorescence microscopy. Briefly, 5000 cells in 20 μL fresh medium are seeded into Poly-D-Lysine-precoated 384-well plates and incubated overnight at 37° C. and 5% CO2, followed by addition of 5 μl medium containing compound dilutions at 5-fold their final intended concentration. […] Assay plates can be imaged using the appropriate filter sets on the Cellomics VTi automated fluorescence microscopy platform (ThermoFisher Scientific) and the population average of the number of NUT-foci per nucleus is quantified using the Cellomics Spot Detection BioApplication image analysis algorithm (ThermoFisher Scientific). […] Compound concentrations leading to half-maximal (IC50) inhibition of the aforementioned readout parameters are determined using standard four parameter curve fitting.

CREBBP = CREBBP (Homo sapiens (Human), UniProt Q92793); experiment: AlphaScreen in-vitro binding assay for CREBBP; conditions: 324 nM His-CREBBP (1081-1197), acetyl-histone H4 (AcK 5, 8, 12) peptide
In short: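 IC50 values were derived by non-linear regression of percent inhibition across 8 compound concentrations. Protein was His-tagged CREBBP bromodomain (1081-1197), peptide acetyl-histone H4 (AcK 5, 8, 12), in HEPES pH 7.5 buffer. Read-out was AlphaScreen with Ni-chelate acceptor and streptavidin donor beads, 35 min at 30° C then 60 min at RT.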

Sequence of BRD3 (Q15059 20-477): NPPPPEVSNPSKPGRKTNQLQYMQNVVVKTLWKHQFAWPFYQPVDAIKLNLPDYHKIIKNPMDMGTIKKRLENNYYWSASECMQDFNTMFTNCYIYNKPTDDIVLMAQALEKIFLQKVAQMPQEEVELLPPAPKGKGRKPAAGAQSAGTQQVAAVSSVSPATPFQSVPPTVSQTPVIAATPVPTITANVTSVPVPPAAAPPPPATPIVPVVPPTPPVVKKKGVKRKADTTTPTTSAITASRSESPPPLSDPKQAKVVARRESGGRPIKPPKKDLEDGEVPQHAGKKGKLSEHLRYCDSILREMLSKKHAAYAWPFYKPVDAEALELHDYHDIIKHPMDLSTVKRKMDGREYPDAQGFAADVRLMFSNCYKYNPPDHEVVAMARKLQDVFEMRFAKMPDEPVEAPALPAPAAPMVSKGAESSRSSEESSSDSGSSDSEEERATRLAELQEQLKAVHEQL
Sequence of BRD2 (P25440 60-472): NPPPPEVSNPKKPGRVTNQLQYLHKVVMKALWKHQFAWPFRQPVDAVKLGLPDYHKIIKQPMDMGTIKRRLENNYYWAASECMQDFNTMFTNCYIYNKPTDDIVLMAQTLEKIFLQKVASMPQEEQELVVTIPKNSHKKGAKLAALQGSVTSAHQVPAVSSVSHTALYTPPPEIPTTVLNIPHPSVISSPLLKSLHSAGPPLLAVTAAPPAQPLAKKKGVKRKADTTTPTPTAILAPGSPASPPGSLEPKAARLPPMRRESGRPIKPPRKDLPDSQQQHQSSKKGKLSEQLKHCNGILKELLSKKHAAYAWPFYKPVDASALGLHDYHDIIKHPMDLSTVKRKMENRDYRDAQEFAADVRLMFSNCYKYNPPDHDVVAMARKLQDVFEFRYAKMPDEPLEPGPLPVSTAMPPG
Sequence of CREBBP (Q92793 1081-1197): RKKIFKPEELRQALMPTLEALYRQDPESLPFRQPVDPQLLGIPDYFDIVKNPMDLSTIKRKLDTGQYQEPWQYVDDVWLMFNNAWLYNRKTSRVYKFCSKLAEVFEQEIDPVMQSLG

## Cc1cc(N2C(=O)c3cc(-c4ccc(N(C)C)nc4)n(C)c3C2c2ccc(Cl)cc2)cn(C)c1=O (stereo not shown) [Example 50, 6-(4-chlorophenyl)-5-(1,5-dimethyl-6-oxo-1,6-dihydropyridin-3-yl)-2-(6-(dimethylamino)pyridin-3-yl)-1-methyl-5,6-dihydropyrrolo[3,4-b]pyrrol-4(1H)-one]
BRD4
  IC50: 46 nM
BRD2
  IC50: 37 nM
BRD3
  IC50: 42 nM
MV-4-11
  GI50: 20.8 nM
  MV-4-11 TGI: 33 nM
THP-1
  GI50: 31.6 nM
  THP-1 TGI: 64.9 nM
K-562
  GI50: 105 nM
  K-562 TGI: >10000 nM
BRD4-NUT-fusion
  IC50: 73.3 nM

## COc1ncc(-c2cc3c(n2C)C(c2ccc(Cl)cc2)N(c2cc(C)c(=O)n(C)c2)C3=O)cn1 (stereo not shown) [Example 55, 6-(4-chlorophenyl)-5-(1,5-dimethyl-6-oxo-1,6-dihydropyridin-3-yl)-2-(2-methoxypyrimidin-5-yl)-1-methyl-5,6-dihydropyrrolo[3,4-b]pyrrol-4(1H)-one]
BRD4
  IC50: 52 nM
BRD2
  IC50: 53 nM
BRD3
  IC50: 50 nM
MV-4-11
  GI50: 34.5 nM
  MV-4-11 TGI: 54.2 nM
THP-1
  GI50: 76.3 nM
  THP-1 TGI: 130 nM
K-562
  GI50: 231 nM
  K-562 TGI: >10000 nM
BRD4-NUT-fusion
  IC50: 146 nM

## Cc1cc(N2C(=O)c3ccn(C4CC4)c3C2c2ccc(Cl)cc2)cn(C)c1=O (stereo not shown) [Example 61, 6-(4-chlorophenyl)-1-cyclopropyl-5-(1,5-dimethyl-6-oxo-1,6-dihydropyridin-3-yl)-5,6-dihydropyrrolo[3,4-b]pyrrol-4(1H)-one]
BRD4
  IC50: 68 nM
BRD2
  IC50: 68 nM
BRD3
  IC50: 53 nM
MV-4-11
  GI50: 61.6 nM
  MV-4-11 TGI: 106 nM
THP-1
  GI50: 102 nM
  THP-1 TGI: 224 nM
K-562
  GI50: 421 nM
  K-562 TGI: >10000 nM
BRD4-NUT-fusion
  IC50: 136 nM

## Cn1ccc2c1C(c1ccc(Cl)cc1)N(c1ccc(=O)n(C)c1)C2=O (stereo not shown) [Example 78, 6-(4-chlorophenyl)-1-methyl-5-(1-methyl-6-oxo-1,6-dihydropyridin-3-yl)-5,6-dihydropyrrolo[3,4-b]pyrrol-4(1H)-one]
BRD4
  IC50: 150 nM
MV-4-11
  GI50: 486 nM
  MV-4-11 TGI: 794.5 nM
THP-1
  GI50: 573 nM
  THP-1 TGI: 1350 nM
K-562
  GI50: 1610 nM
  K-562 TGI: >10000 nM
BRD4-NUT-fusion
  IC50: 729 nM

## Cc1cc(N2C(=O)c3c(C4CC4)cn(C4COC4)c3C2c2ccc(Cl)cc2)nc2c1nnn2C (stereo not shown) [Example 104, 6-(4-chlorophenyl)-3-cyclopropyl-5-(3,7-dimethyl-3H-[1,2,3]triazolo[4,5-b]pyridin-5-yl)-1-(oxetan-3-yl)-5,6-dihydropyrrolo[3,4-b]pyrrol-4(1H)-one]
BRD4
  IC50: 21 nM
BRD2
  IC50: 35 nM
BRD3
  IC50: 21 nM
CREBBP
  IC50: 14800 nM
MV-4-11
  GI50: 2.98 nM
  MV-4-11 TGI: 11 nM
THP-1
  GI50: 6.31 nM
  THP-1 TGI: 18.4 nM
K-562
  GI50: 36.5 nM
  K-562 TGI: >10000 nM

## CC(=O)N1CC(n2cc(C3CC3)c3c2C(c2ccc(Cl)cc2)N(c2cc(C)c4nnn(C)c4n2)C3=O)C1 (stereo not shown) [Example 105, 1-(1-acetylazetidin-3-yl)-6-(4-chlorophenyl)-3-cyclopropyl-5-(3,7-dimethyl-3H-[1,2,3]triazolo[4,5-b]pyridin-5-yl)-5,6-dihydropyrrolo[3,4-b]pyrrol-4(1H)-one]
BRD4
  IC50: < 11 nM
BRD2
  IC50: 13 nM
BRD3
  IC50: 12 nM
CREBBP
  IC50: 14100 nM
MV-4-11
  GI50: 0.341 nM
  MV-4-11 TGI: 2.43 nM
THP-1
  GI50: 0.674 nM
  THP-1 TGI: 2.38 nM
K-562
  GI50: 4.76 nM
  K-562 TGI: >10000 nM

Source: patent US9550796B2, “Pyrrolopyrrolone derivatives and their use as BET inhibitors” (NOVARTIS AG, priority 2013, dated 2017)
